{"source": "patent EP0525686A1", "about": "“Dimethylacetylacetic acid amides, process for their preparation and pharmaceutical compositions” (LUITPOLD PHARMA GmbH, priority 1991, dated 1993)", "key": {"[1]": {"tested_on": "Carrageenin-Lösung erzeugte Ödeme der rechten Hinterpfote", "assay": "Carrageenan-induced paw oedema test for anti-inflammatory activity", "assay_type": "in vivo, Wistar-Ratten", "settings": "200 mg/kg p.o., 30 min before carrageenan; paw volume 3 h after injection; female Wistar rats, n=10", "description": "Die Prüfung auf antientzündliche Wirkung (C. A. Winter, E. A. Risley, G. W. Nuss; Proc. Soc. Exp. Biol. Med. 111, 544 (1962)) erfolgte durch mit 0.5 %iger wäßriger Carrageenin-Lösung erzeugte Ödeme der rechten Hinterpfote an Gruppen mit je zehn nüchternen, ca. 150 g schweren weiblichen Wistar-Ratten. Dazu wurden mit einem Plethysmometer die Volumina der markierten rechten Hinterpfote unmittelbar vor und drei Stunden nach der Injektion der Carrageenin-Lösung gemessen. Die zu prüfenden Substanzen wurden 30 Minuten vor Erzeugung des Ödems als Gummi arabicum Suspension mittels einer Schlundsonde p.o. verabreicht. Die Kontrollgruppe erhielt reines Leitungswasser. Die Einzeldosis pro Tier lag bei 200 mg/kg Körpergewicht.\nZur Auswertung wurde die prozentuale Zunahme des Pfotenvolumens für jedes Tier nach folgender Formel berechnet: [formula] dann wurden Mittelwerte und Streuung für alle so berechneten Werte einer Gruppe bestimmt. Der Unterschied zwischen der mit Prüfsubstanz behandelten Versuchs- und der zugehörigen unbehandelten Gruppe wurde nach der Formel [formula] ermittelt. Die statistische Auswertung erfolgte nach den üblichen Verfahren."}, "[2]": {"assay": "Acute toxicity (LD50), tolerability", "settings": "in vivo; species and route not given", "experimental": "Im Zusammenhang mit der vorliegenden Erfindung wurde überraschend gefunden, daß Substanzen der allgemeinen Formel I wertvolle pharmakologische Eigenschaften aufweisen und insbesondere als antientzündliche Wirkstoffe eingesetzt werden können. Neben der guten Verträglichkeit - die LD50 der Verbindung aus Beispiel 1 liegt beispielsweise bei über 1000 mg/kg - zeichnen sich Verbindungen der allgemeinen Formel I durch nützliche analgetische und antipyretische Eigenschaften aus. Insbesondere eignen sich die erfindungsgemäßen Verbindungen zur Behandlung entzündlicher Erkrankungen bei Mensch und Tier. Die Krankheitsbilder, die mit den erfindungsgemäßen Verbindungen behandelt werden können, umfassen alle entzündlichen Zustände, wie zum Beispiel Entzündungen der Haut wie Radiodermatitis, Psoriasis, Akne, Ekzeme, Entzündungen am Auge wie zum Beispiel Conjunktivitis, Entzündungen im Hals-Nasen-Ohren-Bereichwie zum Beispiel katarralische Infektionen der oberen Luftwege und Sinusitis, entzündliche Erkrankungen des Gefäßsystems wie Thrombophlebitis oder Vaskulitis und Entzündungen des Nervensystems wie zum Beispiel Neuralgien oder Neuritiden. Bevorzugt zu behandelnde entzündliche Erkrankungen sind Entzündungen im Bereich des Bewegungsapparates wie Arthritiden, Arthrose, Tendinitis, Tendopathien, Kontusionen und Distorsionen, Weichteilrheumatismus, Gicht und Lumbalgien. […]"}}, "data": [{"smiles": "COc1ccccc1NC(=O)CC(=O)C(C)C", "note": "[Beispiel 1, N-(2-Methoxyphenyl) 4-methylpentan-3-on-säureamid]", "values": [{"measurement": "% Hemmung", "setting": "[1]", "result": 52, "unit": "%"}, {"measurement": "LD50", "setting": "[2]", "result": "> 1000", "unit": "mg/kg"}]}, {"smiles": "CC(C)C(=O)CC(=O)Nc1nccs1", "note": "[Beispiel 2, N-(2-Thiazolyl)-4-methylpentan-3-on-säureamid]", "values": [{"measurement": "% Hemmung", "setting": "[1]", "result": 32, "unit": "%"}]}, {"smiles": "COc1ccc(NC(=O)CC(=O)C(C)C)cc1", "note": "[Beispiel 3, N-(4-Methoxyphenyl)-4-methylpentan-3-on-säureamid]", "values": [{"measurement": "% Hemmung", "setting": "[1]", "result": 27, "unit": "%"}]}, {"smiles": "COc1ccc(C)cc1NC(=O)CC(=O)C(C)C", "note": "[Beispiel 4, N-(2-Methoxy-5-methylphenyl)-4-methylpentan-3-on-säureamid]", "values": [{"measurement": "% Hemmung", "setting": "[1]", "result": 26, "unit": "%"}]}]}
